In the supplement of paper PMC10307832:

Legend:
Assay in all cases: relative viability (nuclei count vs DMSO), 5 days (fraction); higher = more cells survive
NCI-H1993 = tested on: NCI-H1993
In short: (§1)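 Relative viability divides the nuclei count in treated wells by that in vehicle wells. Lung cancer cell lines were seeded in 1536-well plates, dosed by pin tool the next day, and fixed and stained after 5 days in one step with final 0.05% Triton X-100, 1% formaldehyde and 1 ug/ml Hoechst. Dosing was a single drug or a fixed anchor-drug dose plus five library-drug doses (not always all listed) in √10 steps, and values are medians of duplicate plates imaged at 4×.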

NCI-H460 = tested on: NCI-H460
In short: as §1

EMC-BAC-2 = tested on: EMC-BAC-2
In short: as §1

NCI-H1793 = tested on: NCI-H1793
In short: as §1

PC-14 = tested on: PC-14
In short: as §1

NCI-H1944 = tested on: NCI-H1944
In short: as §1

NCI-H1355 = tested on: NCI-H1355
In short: as §1

NCI-H1975 = tested on: NCI-H1975
In short: as §1

NCI-H2126 = tested on: NCI-H2126
In short: as §1

NCI-H441 = tested on: NCI-H441
In short: as §1

NCI-H647 = tested on: NCI-H647
In short: as §1

NCI-H2347 = tested on: NCI-H2347
In short: as §1

NCI-H1666 = tested on: NCI-H1666
In short: as §1

LCLC-97TM1 = tested on: LCLC-97TM1
In short: as §1

NCI-H1755 = tested on: NCI-H1755
In short: as §1

ABC-1 = tested on: ABC-1
In short: as §1

NCI-H727 = tested on: NCI-H727
In short: as §1

PC-3 [JPC-3] = tested on: PC-3 [JPC-3]
In short: as §1

NCI-H2170 = tested on: NCI-H2170
In short: as §1

`O=C(O)CCCCC(CCSCc1ccccc1)SCc1ccccc1` (stereo not drawn) [CPI-613] + NC(=O)Nc1cc(-c2cccc(F)c2)sc1C(=O)N[C@H]1CCCNC1 [AZD7762] (partner 0.2 µM) was tested, and the relative viability (NCI-H1993; first compound 5 µM) was 0.743, the relative viability (NCI-H1993; first compound 15.81 µM) was 0.688 and the relative viability (NCI-H1993; first compound 50 µM) was 0.65. The relative viability (NCI-H1993; first compound 158.11 µM) was 0.537, the relative viability (NCI-H1993; first compound 500 µM) was 0.286 and the relative viability (NCI-H460; first compound 5 µM) was 0.633. The relative viability (NCI-H460; first compound 15.81 µM) was 0.529, the relative viability (NCI-H460; first compound 50 µM) was 0.613 and the relative viability (NCI-H460; first compound 158.11 µM) was 0.418. It also gave a relative viability (NCI-H460; first compound 500 µM) of 0.291, a relative viability (EMC-BAC-2; first compound 5 µM) of 1.1 and a relative viability (EMC-BAC-2; first compound 15.81 µM) of 1.05. The relative viability (EMC-BAC-2; first compound 50 µM) was 1.14, the relative viability (EMC-BAC-2; first compound 158.11 µM) was 0.902 and the relative viability (EMC-BAC-2; first compound 500 µM) was 0.529. The relative viability (NCI-H1793; first compound 5 µM) was 0.447, the relative viability (NCI-H1793; first compound 15.81 µM) was 0.367 and the relative viability (NCI-H1793; first compound 50 µM) was 0.372. For the same molecule, the relative viability (NCI-H1793; first compound 158.11 µM) was 0.11, the relative viability (NCI-H1793; first compound 500 µM) was 0.0077 and the relative viability (PC-14; first compound 5 µM) was 0.349. The relative viability (PC-14; first compound 15.81 µM) was 0.252, the relative viability (PC-14; first compound 50 µM) was 0.296 and the relative viability (PC-14; first compound 158.11 µM) was 0.256. For the same molecule, the relative viability (PC-14; first compound 500 µM) was 0.16, the relative viability (NCI-H1944; first compound 5 µM) was 0.511 and the relative viability (NCI-H1944; first compound 15.81 µM) was 0.487. It also gave a relative viability (NCI-H1944; first compound 50 µM) of 0.473, a relative viability (NCI-H1944; first compound 158.11 µM) of 0.307 and a relative viability (NCI-H1944; first compound 500 µM) of 0.345. For the same molecule, the relative viability (NCI-H1355; first compound 5 µM) was 0.721, the relative viability (NCI-H1355; first compound 15.81 µM) was 0.741 and the relative viability (NCI-H1355; first compound 50 µM) was 0.772. It also gave a relative viability (NCI-H1355; first compound 158.11 µM) of 0.52, a relative viability (NCI-H1355; first compound 500 µM) of 0.185 and a relative viability (NCI-H1975; first compound 5 µM) of 0.734. For the same molecule, the relative viability (NCI-H1975; first compound 15.81 µM) was 0.682, the relative viability (NCI-H1975; first compound 50 µM) was 0.581 and the relative viability (NCI-H1975; first compound 158.11 µM) was 0.666. It also gave a relative viability (NCI-H1975; first compound 500 µM) of 0.677, a relative viability (NCI-H2126; first compound 5 µM) of 0.935 and a relative viability (NCI-H2126; first compound 15.81 µM) of 0.966. It also gave a relative viability (NCI-H2126; first compound 50 µM) of 0.991, a relative viability (NCI-H2126; first compound 158.11 µM) of 0.348 and a relative viability (NCI-H2126; first compound 500 µM) of 0.788. It also gave a relative viability (NCI-H441; first compound 5 µM) of 1.09, a relative viability (NCI-H441; first compound 15.81 µM) of 0.803 and a relative viability (NCI-H441; first compound 50 µM) of 1.39. The relative viability (NCI-H441; first compound 158.11 µM) was 0.788, the relative viability (NCI-H441; first compound 500 µM) was 0.0052 and the relative viability (NCI-H647; first compound 5 µM) was 0.502. For the same molecule, the relative viability (NCI-H647; first compound 15.81 µM) was 0.32, the relative viability (NCI-H647; first compound 50 µM) was 0.406 and the relative viability (NCI-H647; first compound 158.11 µM) was 0.282. It also gave a relative viability (NCI-H647; first compound 500 µM) of 0.343, a relative viability (NCI-H2347; first compound 5 µM) of 0.735 and a relative viability (NCI-H2347; first compound 15.81 µM) of 0.787. For the same molecule, the relative viability (NCI-H2347; first compound 50 µM) was 0.715, the relative viability (NCI-H2347; first compound 158.11 µM) was 0.718 and the relative viability (NCI-H2347; first compound 500 µM) was 0.435. The relative viability (NCI-H1666; first compound 5 µM) was 0.911, the relative viability (NCI-H1666; first compound 15.81 µM) was 0.821 and the relative viability (NCI-H1666; first compound 50 µM) was 0.761. For the same molecule, the relative viability (NCI-H1666; first compound 158.11 µM) was 0.376, the relative viability (NCI-H1666; first compound 500 µM) was 0.553 and the relative viability (LCLC-97TM1; first compound 5 µM) was 0.293. For the same molecule, the relative viability (LCLC-97TM1; first compound 15.81 µM) was 0.225, the relative viability (LCLC-97TM1; first compound 50 µM) was 0.229 and the relative viability (LCLC-97TM1; first compound 158.11 µM) was 0.125. It also gave a relative viability (LCLC-97TM1; first compound 500 µM) of 0.0538, a relative viability (NCI-H1755; first compound 5 µM) of 0.383 and a relative viability (NCI-H1755; first compound 15.81 µM) of 0.4. It also gave a relative viability (NCI-H1755; first compound 50 µM) of 0.319, a relative viability (NCI-H1755; first compound 158.11 µM) of 0.397 and a relative viability (NCI-H1755; first compound 500 µM) of 0.375. It also gave a relative viability (ABC-1; first compound 5 µM) of 1.18, a relative viability (ABC-1; first compound 15.81 µM) of 0.696 and a relative viability (ABC-1; first compound 158.11 µM) of 0.471. For the same molecule, the relative viability (ABC-1; first compound 500 µM) was 0.71, the relative viability (NCI-H727; first compound 5 µM) was 0.617 and the relative viability (NCI-H727; first compound 15.81 µM) was 0.547. For the same molecule, the relative viability (NCI-H727; first compound 50 µM) was 0.669, the relative viability (NCI-H727; first compound 158.11 µM) was 0.555 and the relative viability (NCI-H727; first compound 500 µM) was 0.561. For the same molecule, the relative viability (PC-3 [JPC-3]; first compound 5 µM) was 0.777, the relative viability (PC-3 [JPC-3]; first compound 50 µM) was 0.909 and the relative viability (PC-3 [JPC-3]; first compound 158.11 µM) was 0.464. For the same molecule, the relative viability (PC-3 [JPC-3]; first compound 500 µM) was 0.114, the relative viability (NCI-H2170; first compound 5 µM) was 0.878 and the relative viability (NCI-H2170; first compound 15.81 µM) was 0.826. It also gave a relative viability (NCI-H2170; first compound 50 µM) of 0.865, a relative viability (NCI-H2170; first compound 158.11 µM) of 0.607 and a relative viability (NCI-H2170; first compound 500 µM) of 0.231.
